Source: US20130288956A1, “COMBINED PHARMACEUTICAL COMPOSITION AS ANTIFUNGAL AGENT” (priority 2010, published 2013)

Experiments:
A. fumigatus = assay: In vitro combination effects, checkerboard method by micro dilution (FIC index); assay type: cell-based, Aspergillus fumigatus; details: A. fumigatus (18 strains)
Experimental: (§1) A clinically isolated strain retained by the Medical Mycology Research Center of Chiba University (Code No. IFM) and a clinically isolated strain retained by the Life Science Research Center of Gifu University (Code No. E) were used as Candida and Aspergillus strains.
(§2) An Aspergillus strain stored frozen at −80° C., or spores obtained by static culturing at 35° C. for 1 week in Potato Dextrose agar medium (PDA, Eiken Chemical Co., Ltd.) followed by scraping from the container with a metal loop, was diluted with RPMI 1640 medium containing 0.165 M MOPS to prepare a fungus liquid having a fungus concentration of 0.75×10^4 cells/mL to 1.33×10^4 cells/mL.
(§3) Test Compound 1 (0.0005 μg/mL to 1.56 μg/mL) in the horizontal rows (12 wells) of a 96-well flat-bottom plate, and an antifungal agent in the form of ravuconazole (0.0015 μg/mL to 6.25 μg/mL), fluconazole (0.008 μg/mL to 32 μg/mL), voriconazole (0.0002 μg/mL to 8 μg/mL), micafungin (0.0005 μg/mL to 0.25 μg/mL), caspofungin (0.0005 μg/mL to 1 μg/mL) or amphotericin B (0.008 μg/mL to 8 μg/mL) in the vertical rows (8 wells) of the flat-bottom plate were prepared by diluting so as to blend together using RPMI 1640 medium containing 0.165 M MOPS to obtain a control group, a single Test Compound 1 group, each one of antifungal agents groups and combination groups of Test Compound 1+each one of antifungal agents.
(§4) The fungus liquids prepared in (1) were inoculated into the wells of 96-well flat-bottom plate containing 20 μL/well to 75 μL/well of the diluted test drug liquids prepared in (2) at 80 μL/well to 125 μL/well, followed by aerobically static culturing for 25 hours to 48 hours at 35° C.
(§5) Combination effects of Test Compound 1 and the antifungal agents were measured with the checkerboard method by micro dilution.
(§6) Interaction between both drugs was assessed by calculating the FIC index using the calculation formula indicated below.
(§7) The FIC index was calculated for each combination of antifungal agent concentrations that inhibited fungal growth, and the minimum value of the resulting FIC index was used as a combination FIC index.
(§8) A combination FIC index of 0.5 or less was evaluated as indicating synergistic action, that of 0.5 to 1 or less was evaluated as indicating additive action, and that of 1 to 4 or less was evaluated as indicating indifferent action.
(§9) FIC Index=(MIC value of drug A during combination use/MIC value of drug A when used alone)+(MIC value of drug B during combination use/MIC value of drug B when used alone) (Calculation Formula)

[1] = test system: A. flavus strain IFM50915; assay: A. flavus respiratory tract infection model; assay type: in vivo, mice; details: for Combined effects in mouse Aspergillus flavus infection model: combination with the test compound of the invention
Experimental: (§10) Female DBA/2N mice (age 8 weeks, Charles River Laboratories Japan, Inc.) were subcutaneously administered 200 mg/kg of 5-fluorouracil 5 or 6 days prior to infection in order to put the mice into a compromised state.
(§11) A. fumigatus strain IFM52108 and A. flavus strain IFM50915 were used.
A liquid containing spores of A. flavus strain IFM50915 stored at −80° C. was thawed, and the number of spores was counted using a hemocytometer followed by diluting with sterile physiological saline containing 0.05% Tween 80 to a concentration of 0.6×10^6 cells/mL to 1.0×10^6 cells/mL to obtain an inoculation fungus liquid.
(§12) 50 μl of inoculation fungus liquid were inoculated into the nasal cavities of 9-week-old mice at 0.3×10^5 cells/mouse to 1.25×10^5 cells/mouse under Ketalar anesthesia.
(§13) 0.1 mL to 0.2 mL of each drug solution (dissolved in sterile physiological saline or 5% glucose solution, or dissolved in sterile physiological saline or 5% glucose solution containing 6.5% dimethylsulfoxide and 3.5% Tween 80) was administered to the individual and combination dose groups either into the peritoneal cavity or into the stomach using a gastric cannula corresponding to the administration route of the drug for 3 to 4 days at the rate of 1 to 2 times per day starting 0.5 hours to 1 hour after inoculation of fungus.
(§14) There were 5 to 9 animals in each group.
(§15) Infection protection results were assessed on survival rate 14 days after infection.

C. albicans = assay: In vitro combination effects, checkerboard method by micro dilution (FIC index); assay type: cell-based, Candida albicans; details: C. albicans (20 strains); combination use with Test Compound 1
Experimental: as §1
(§16) Fungus liquid obtained by static culturing at 35° C. for 48 hours in Sabouraud Dextrose liquid medium (SDB, Becton, Dickinson and Co.) was diluted with RPMI 1640 medium (Nissui Pharmaceutical Co., Ltd.) containing 0.165 M 3-(N-morpholino)propanesulfonic acid (MOPS) to prepare a fungus liquid having a fungus concentration of 1×10^3 cells/mL to 2×10^3 cells/mL.
as §3, §4, §5, §6, §7, §8, §9

C. tropicalis = assay: as above; assay type: cell-based, Candida tropicalis; details: C. tropicalis (10 strains); combination use with Test Compound 1
Experimental: as §1, §16, §3, §4, §5, §6, §7, §8, §9

A. flavus = assay: as above; assay type: cell-based, Aspergillus flavus; details: A. flavus (4 strains), Table 1
Experimental: as §1, §2, §3, §4, §5, §6, §7, §8, §9

C. glabrata = assay: as above; assay type: cell-based, Candida glabrata; details: for Ratio indicating Additive effect of combination use with Test Compound 1 / Ratio indicating Antagonistic effect of combination use with Test Compound 1 / Ratio indicating Indifferent effect of combination use with Test Compound 1 / Ratio indicating Synergistic effect of combination use with Test Compound 1: C. glabrata (10 strains)
Experimental: as §1, §16, §3, §4, §5, §6, §7, §8, §9

[2] = test system: A. fumigatus strain IFM52108; assay: A. fumigatus respiratory tract infection model; assay type: in vivo, mice
Experimental: as §10, §11
A liquid containing spores of A. fumigatus strain IFM52108 stored at −80° C. was applied to Potato Dextrose agar medium (PDA, Eiken Chemical Co., Ltd.) followed by static culturing for 5 to 7 days at 35° C. and suspending in sterile physiological saline containing 0.05% Tween 80.
The number of spores was counted using a hemocytometer, and the liquid was diluted with sterile physiological saline containing 0.05% Tween 80 to a concentration of 1.2×10^6 cells/mL to 2.5×10^6 cells/mL to obtain an inoculation fungus liquid.
as §12, §13, §14, §15

With `C[C@@H]1[C@H](O)[C@@H](C)/C=C/C=C/C=C/C=C/C=C/C=C/C=C/[C@H](O[C@@H]2O[C@H](C)[C@@H](O)[C@H](N)[C@@H]2O)C[C@@H]2O[C@](O)(C[C@@H](O)C[C@@H](O)[C@H](O)CC[C@@H](O)C[C@@H](O)CC(=O)O[C@H]1C)C[C@H](O)[C@H]2C(=O)O` [Amphotericin B, amphotericin B] the “Ratio indicating Additive effect of combination use with Test Compound 1” value (from here on “Ratio indicating Additive effect”) (A. fumigatus) was 33%, the “Ratio indicating Antagonistic effect of combination use with Test Compound 1” value (shortened to “Ratio indicating Antagonistic effect”) (A. fumigatus) was 0% and the “Ratio indicating Indifferent effect of combination use with Test Compound 1” value (“Ratio indicating Indifferent effect” below) (A. fumigatus) was 67%. For the same compound, the “Ratio indicating Synergistic effect of combination use with Test Compound 1” value (“Ratio indicating Synergistic effect” for short) (A. fumigatus) was 0%, the 14-day survival rate ([1]; AMPH 0.5 mg/kg) was 20% and the 14-day survival rate ([1]; AMPH 1 mg/kg) was 0%. The “Combined effects in mouse Aspergillus flavus infection model” value [1] was “synergistic combined effects”, the “Ratio indicating Additive effect” value (C. albicans) was 85% and the “Ratio indicating Antagonistic effect” value (C. albicans) was 0%. The “Ratio indicating Indifferent effect” value (C. albicans) was 10%, the “Ratio indicating Synergistic effect” value (C. albicans) was 5% and the “Ratio indicating Additive effect” value (C. tropicalis) was 90%. The “Ratio indicating Antagonistic effect” value (C. tropicalis) was 0%, the “Ratio indicating Indifferent effect” value (C. tropicalis) was 10% and the “Ratio indicating Synergistic effect” value (C. tropicalis) was 0%. The “Ratio indicating Additive effect” value (A. flavus) was 25%, the “Ratio indicating Antagonistic effect” value (A. flavus) was 0% and the “Ratio indicating Indifferent effect” value (A. flavus) was 75%. The “Ratio indicating Synergistic effect” value (A. flavus) was 0%, the “Ratio indicating Additive effect” value (C. glabrata) was 70% and the “Ratio indicating Antagonistic effect” value (C. glabrata) was 0%. For the same compound, the “Ratio indicating Indifferent effect” value (C. glabrata) was 0%, the “Ratio indicating Synergistic effect” value (C. glabrata) was 30% and the “Effect of combination use with Test Compound 1 (FIC index evaluation)” value (C. glabrata; Candida glabrata strain IFM46888, resistant to fluconazole) was “synergistic (A combination FIC index of 0.5 or less was evaluated as indicating synergistic action)”.

For `OC(Cn1cncn1)(Cn1cncn1)c1ccc(F)cc1F` [Fluconazole, fluconazole], the “Ratio indicating Additive effect” value (C. albicans) was 80%, the “Ratio indicating Antagonistic effect” value (C. albicans) was 0% and the “Ratio indicating Indifferent effect” value (C. albicans) was 10%. The “Ratio indicating Synergistic effect” value (C. albicans) was 10%, the “Ratio indicating Additive effect” value (C. tropicalis) was 10% and the “Ratio indicating Antagonistic effect” value (C. tropicalis) was 0%. The “Ratio indicating Indifferent effect” value (C. tropicalis) was 0%, the “Ratio indicating Synergistic effect” value (C. tropicalis) was 90% and the “Ratio indicating Additive effect” value (C. glabrata) was 90%. For the same compound, the “Ratio indicating Antagonistic effect” value (C. glabrata) was 0%, the “Ratio indicating Indifferent effect” value (C. glabrata) was 10% and the “Ratio indicating Synergistic effect” value (C. glabrata) was 0%.

`CC[C@H](C)C[C@H](C)CCCCCCCCC(=O)N[C@H]1C[C@@H](O)[C@@H](NCCN)NC(=O)[C@@H]2[C@@H](O)CCN2C(=O)[C@H]([C@H](O)CCN)NC(=O)[C@H]([C@H](O)[C@@H](O)c2ccc(O)cc2)NC(=O)[C@@H]2C[C@@H](O)CN2C(=O)[C@H]([C@@H](C)O)NC1=O` [Caspofungin, caspofungin] was tested, and the “Ratio indicating Additive effect” value (A. fumigatus) was 22%, the “Ratio indicating Antagonistic effect” value (A. fumigatus) was 0% and the “Ratio indicating Indifferent effect” value (A. fumigatus) was 0%. The “Ratio indicating Synergistic effect” value (A. fumigatus) was 78%, the 14-day survival rate ([1]; CSFG 0.1 mg/kg, Table 5) was 37.5% and the 14-day survival rate ([1]; CSFG 0.2 mg/kg, Table 5) was 50%. The 14-day survival rate ([1]; CSFG 0.25 mg/kg, Table 4) was 20%, the 14-day survival rate ([1]; CSFG 0.5 mg/kg, Table 4) was 60% and the “Combined effects in mouse Aspergillus flavus infection model” value [1] was “synergistic combined effects”. The “Ratio indicating Additive effect” value (C. albicans) was 85%, the “Ratio indicating Antagonistic effect” value (C. albicans) was 0% and the “Ratio indicating Indifferent effect” value (C. albicans) was 15%. The “Ratio indicating Synergistic effect” value (C. albicans) was 0%, the “Ratio indicating Additive effect” value (C. tropicalis) was 90% and the “Ratio indicating Antagonistic effect” value (C. tropicalis) was 0%. For the same compound, the “Ratio indicating Indifferent effect” value (C. tropicalis) was 10%, the “Ratio indicating Synergistic effect” value (C. tropicalis) was 0% and the “Ratio indicating Additive effect” value (A. flavus) was 25%. For the same compound, the “Ratio indicating Antagonistic effect” value (A. flavus) was 0%, the “Ratio indicating Indifferent effect” value (A. flavus) was 0% and the “Ratio indicating Synergistic effect” value (A. flavus) was 75%. For the same compound, the “Ratio indicating Additive effect” value (C. glabrata) was 100%, the “Ratio indicating Antagonistic effect” value (C. glabrata) was 0% and the “Ratio indicating Indifferent effect” value (C. glabrata) was 0%. The “Ratio indicating Synergistic effect” value (C. glabrata) was 0%.

With `Nc1c(-c2cc(Cc3ccc(COc4ccccn4)cc3)no2)ccc[n+]1COP(=O)([O-])O` [Test Compound 2, 2-amino-1-((phosphonooxy)methyl)-3-(3-((4-((2-pyridinyloxy)methyl)phenyl)methyl)-5-isoxazolyl)-pyridinium] the 14-day survival rate ([1]; Test Compound 2 2.5 mg/kg, Table 5 CSFG experiment) was 0%, the 14-day survival rate ([1]; Test Compound 2 5 mg/kg, Table 5 CSFG experiment) was 50% and the 14-day survival rate ([1]; Test Compound 2 5 mg/kg, Table 5 L-AmB experiment) was 0%. It also gave a 14-day survival rate ([1]; Test Compound 2 5 mg/kg, Table 5 MCFG experiment) of 22.2% and a 14-day survival rate ([1]; Test Compound 2 10 mg/kg, Table 5 MCFG experiment) of 55.6%.

Work on `Nc1ncccc1-c1cc(Cc2ccc(COc3ccccn3)cc2)no1` [Test Compound 1, 3-(3-(4-(pyridin-2-yloxymethyl)-benzyl)-isoxazol-5-yl)-pyridin-2-ylamine] yielded a 14-day survival rate ([1]; Test Compound 1 5 mg/kg, Table 4 AMPH experiment) of 20%, a 14-day survival rate ([1]; Test Compound 1 5 mg/kg, Table 4 MCFG experiment) of 12.5% and a 14-day survival rate ([1]; Test Compound 1 5 mg/kg, Table 4 RVCZ experiment) of 20%. It also gave a 14-day survival rate ([1]; Test Compound 1 8 mg/kg, Table 4 CSFG experiment) of 0%, a 14-day survival rate ([1]; Test Compound 1 10 mg/kg, Table 4 AMPH experiment) of 60% and a 14-day survival rate ([1]; Test Compound 1 10 mg/kg, Table 4 RVCZ experiment) of 60%. The 14-day survival rate ([1]; Test Compound 1 16 mg/kg, Table 4 CSFG experiment) was 80%, the 14-day survival rate ([2]; Test Compound 1 10 mg/kg, Table 3 MCFG experiment) was 0% and the 14-day survival rate ([2]; Test Compound 1 10 mg/kg, Table 3 RVCZ experiment) was 0%. For the same compound, the 14-day survival rate ([2]; Test Compound 1 10 mg/kg, Table 3 VRCZ experiment) was 40%, the 14-day survival rate ([2]; Test Compound 1 20 mg/kg, Table 3 MCFG experiment) was 20% and the 14-day survival rate ([2]; Test Compound 1 20 mg/kg, Table 3 RVCZ experiment) was 20%. For the same compound, the 14-day survival rate ([2]; Test Compound 1 20 mg/kg, Table 3 VRCZ experiment) was 40%.
